Source: ChEMBL document CHEMBL3991601, “The target landscape of clinical kinase drugs” (Science, 2017)
Structures can show the parent of a compound that is named as a salt. Active and inactive are the calls of the source. Cut-off read from the data, not from the text of the source, for most assays here: actives have a measured Kd and inactives only a lower limit.

What was measured:
[1] = target: Dual specificity protein kinase CLK1 (Homo sapiens, UniProt P49759)
[2] = target: Calcium/calmodulin-dependent protein kinase type II subunit gamma (Homo sapiens, UniProt Q13555)
[3] = target: Serine/threonine-protein kinase MRCK gamma (Homo sapiens, UniProt Q6DT37)
[4] = target: T1, TGF-beta receptor type-1 (Homo sapiens, UniProt P36897)
T1 sequence (P36897 whole entry): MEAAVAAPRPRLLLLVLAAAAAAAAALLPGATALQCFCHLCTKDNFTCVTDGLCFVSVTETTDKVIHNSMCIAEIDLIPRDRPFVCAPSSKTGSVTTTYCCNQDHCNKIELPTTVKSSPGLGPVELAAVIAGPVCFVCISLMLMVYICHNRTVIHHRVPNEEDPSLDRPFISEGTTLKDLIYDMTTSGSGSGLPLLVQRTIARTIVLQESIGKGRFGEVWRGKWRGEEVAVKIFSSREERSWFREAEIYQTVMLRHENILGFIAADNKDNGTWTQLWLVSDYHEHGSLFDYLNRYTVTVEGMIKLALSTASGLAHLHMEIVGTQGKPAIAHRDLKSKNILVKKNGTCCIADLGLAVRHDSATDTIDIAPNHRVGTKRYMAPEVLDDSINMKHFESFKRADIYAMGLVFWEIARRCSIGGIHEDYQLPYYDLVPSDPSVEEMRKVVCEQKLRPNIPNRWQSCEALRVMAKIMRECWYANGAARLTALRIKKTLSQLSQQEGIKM

[5] = target: T2, Ephrin type-A receptor 1 (Homo sapiens, UniProt P21709)
T2 sequence (P21709 whole entry): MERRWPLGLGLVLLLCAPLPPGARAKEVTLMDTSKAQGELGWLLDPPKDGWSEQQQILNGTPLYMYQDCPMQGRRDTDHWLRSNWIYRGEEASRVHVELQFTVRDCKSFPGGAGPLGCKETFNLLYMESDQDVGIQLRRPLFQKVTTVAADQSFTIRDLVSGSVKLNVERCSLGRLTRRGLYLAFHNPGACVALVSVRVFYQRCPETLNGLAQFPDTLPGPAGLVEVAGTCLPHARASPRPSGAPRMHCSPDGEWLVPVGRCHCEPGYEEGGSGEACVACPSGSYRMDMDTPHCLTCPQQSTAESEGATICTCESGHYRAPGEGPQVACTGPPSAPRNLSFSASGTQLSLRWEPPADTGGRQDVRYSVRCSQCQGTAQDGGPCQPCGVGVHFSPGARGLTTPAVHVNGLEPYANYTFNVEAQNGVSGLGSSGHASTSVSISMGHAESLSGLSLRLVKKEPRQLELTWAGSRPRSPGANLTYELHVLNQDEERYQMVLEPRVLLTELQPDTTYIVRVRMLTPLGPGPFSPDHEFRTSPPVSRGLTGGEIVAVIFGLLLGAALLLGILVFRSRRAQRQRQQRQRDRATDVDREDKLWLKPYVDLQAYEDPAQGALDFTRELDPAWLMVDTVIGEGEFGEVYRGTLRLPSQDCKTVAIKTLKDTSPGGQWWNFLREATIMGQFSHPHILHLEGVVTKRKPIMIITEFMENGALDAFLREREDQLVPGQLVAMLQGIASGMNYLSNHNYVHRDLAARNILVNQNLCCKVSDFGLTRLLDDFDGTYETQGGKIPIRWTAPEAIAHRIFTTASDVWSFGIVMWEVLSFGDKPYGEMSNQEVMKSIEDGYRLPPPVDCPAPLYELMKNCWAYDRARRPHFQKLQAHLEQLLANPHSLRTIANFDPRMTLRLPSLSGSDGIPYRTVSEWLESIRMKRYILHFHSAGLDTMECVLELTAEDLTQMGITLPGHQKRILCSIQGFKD

[6] = target: T3, Serine/threonine-protein kinase TAO2 (Homo sapiens, UniProt Q9UL54)
T3 sequence (Q9UL54 whole entry): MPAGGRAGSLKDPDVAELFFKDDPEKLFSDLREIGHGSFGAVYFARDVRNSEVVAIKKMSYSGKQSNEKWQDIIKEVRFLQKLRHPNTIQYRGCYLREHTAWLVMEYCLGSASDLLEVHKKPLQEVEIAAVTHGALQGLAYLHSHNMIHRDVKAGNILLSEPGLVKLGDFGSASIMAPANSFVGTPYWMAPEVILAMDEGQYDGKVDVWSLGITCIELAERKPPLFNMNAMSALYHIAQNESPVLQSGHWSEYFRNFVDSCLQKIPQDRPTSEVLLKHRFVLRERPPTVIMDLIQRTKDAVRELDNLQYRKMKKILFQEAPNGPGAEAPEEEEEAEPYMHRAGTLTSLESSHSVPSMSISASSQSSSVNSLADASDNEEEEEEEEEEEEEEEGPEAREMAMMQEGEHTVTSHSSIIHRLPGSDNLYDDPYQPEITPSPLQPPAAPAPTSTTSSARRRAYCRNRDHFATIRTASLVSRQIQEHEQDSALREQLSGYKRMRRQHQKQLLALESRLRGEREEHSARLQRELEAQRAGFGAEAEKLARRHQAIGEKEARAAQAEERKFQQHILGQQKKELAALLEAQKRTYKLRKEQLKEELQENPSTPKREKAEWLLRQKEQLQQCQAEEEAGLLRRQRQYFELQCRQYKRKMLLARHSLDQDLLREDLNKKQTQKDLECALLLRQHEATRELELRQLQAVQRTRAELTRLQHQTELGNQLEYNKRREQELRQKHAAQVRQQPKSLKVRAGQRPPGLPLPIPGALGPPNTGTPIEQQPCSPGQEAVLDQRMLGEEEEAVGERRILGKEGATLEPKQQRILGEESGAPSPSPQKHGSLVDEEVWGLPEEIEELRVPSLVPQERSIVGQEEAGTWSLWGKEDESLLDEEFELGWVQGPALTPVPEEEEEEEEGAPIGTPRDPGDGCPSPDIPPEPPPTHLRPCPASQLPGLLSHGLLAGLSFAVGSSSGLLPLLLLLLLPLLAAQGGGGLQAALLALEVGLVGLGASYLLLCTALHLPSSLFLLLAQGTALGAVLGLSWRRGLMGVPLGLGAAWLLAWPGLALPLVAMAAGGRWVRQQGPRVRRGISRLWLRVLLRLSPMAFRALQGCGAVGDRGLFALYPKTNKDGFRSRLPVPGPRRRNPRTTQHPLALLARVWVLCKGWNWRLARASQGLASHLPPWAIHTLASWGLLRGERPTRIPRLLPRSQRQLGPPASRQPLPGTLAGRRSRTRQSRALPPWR
Note: in the data inactive means no Kd found up to 30 µM.

Sequence of Calcium/calmodulin-dependent protein kinase type II subunit gamma (Q13555 whole entry): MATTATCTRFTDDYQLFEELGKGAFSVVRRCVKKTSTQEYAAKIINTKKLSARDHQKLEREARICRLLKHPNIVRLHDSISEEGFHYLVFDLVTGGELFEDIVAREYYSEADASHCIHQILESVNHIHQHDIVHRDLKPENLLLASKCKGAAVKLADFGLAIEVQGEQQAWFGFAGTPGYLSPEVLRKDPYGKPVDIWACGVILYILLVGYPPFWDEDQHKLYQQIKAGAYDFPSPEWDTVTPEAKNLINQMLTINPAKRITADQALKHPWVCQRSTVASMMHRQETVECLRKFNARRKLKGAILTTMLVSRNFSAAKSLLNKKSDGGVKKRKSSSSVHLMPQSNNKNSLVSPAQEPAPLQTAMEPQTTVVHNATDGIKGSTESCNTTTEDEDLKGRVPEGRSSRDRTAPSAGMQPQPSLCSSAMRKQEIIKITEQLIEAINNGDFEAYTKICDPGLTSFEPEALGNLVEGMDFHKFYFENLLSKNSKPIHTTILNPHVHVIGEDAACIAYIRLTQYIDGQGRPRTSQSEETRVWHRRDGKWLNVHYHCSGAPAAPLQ
Sequence of Dual specificity protein kinase CLK1 (P49759 whole entry): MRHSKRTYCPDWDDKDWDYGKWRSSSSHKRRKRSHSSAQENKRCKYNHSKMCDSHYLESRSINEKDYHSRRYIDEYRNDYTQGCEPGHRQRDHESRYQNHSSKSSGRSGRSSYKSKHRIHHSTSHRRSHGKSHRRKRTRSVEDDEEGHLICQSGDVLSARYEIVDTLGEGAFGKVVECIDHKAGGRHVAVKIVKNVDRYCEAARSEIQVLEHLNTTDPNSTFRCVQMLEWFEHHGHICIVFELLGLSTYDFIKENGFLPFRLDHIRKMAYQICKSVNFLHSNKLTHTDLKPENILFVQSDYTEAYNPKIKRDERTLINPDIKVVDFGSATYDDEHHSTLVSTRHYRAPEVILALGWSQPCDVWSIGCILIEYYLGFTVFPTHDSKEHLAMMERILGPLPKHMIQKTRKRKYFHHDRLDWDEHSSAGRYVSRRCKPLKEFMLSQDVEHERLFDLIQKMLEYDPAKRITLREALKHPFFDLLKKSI
Sequence of Serine/threonine-protein kinase MRCK gamma (Q6DT37 whole entry): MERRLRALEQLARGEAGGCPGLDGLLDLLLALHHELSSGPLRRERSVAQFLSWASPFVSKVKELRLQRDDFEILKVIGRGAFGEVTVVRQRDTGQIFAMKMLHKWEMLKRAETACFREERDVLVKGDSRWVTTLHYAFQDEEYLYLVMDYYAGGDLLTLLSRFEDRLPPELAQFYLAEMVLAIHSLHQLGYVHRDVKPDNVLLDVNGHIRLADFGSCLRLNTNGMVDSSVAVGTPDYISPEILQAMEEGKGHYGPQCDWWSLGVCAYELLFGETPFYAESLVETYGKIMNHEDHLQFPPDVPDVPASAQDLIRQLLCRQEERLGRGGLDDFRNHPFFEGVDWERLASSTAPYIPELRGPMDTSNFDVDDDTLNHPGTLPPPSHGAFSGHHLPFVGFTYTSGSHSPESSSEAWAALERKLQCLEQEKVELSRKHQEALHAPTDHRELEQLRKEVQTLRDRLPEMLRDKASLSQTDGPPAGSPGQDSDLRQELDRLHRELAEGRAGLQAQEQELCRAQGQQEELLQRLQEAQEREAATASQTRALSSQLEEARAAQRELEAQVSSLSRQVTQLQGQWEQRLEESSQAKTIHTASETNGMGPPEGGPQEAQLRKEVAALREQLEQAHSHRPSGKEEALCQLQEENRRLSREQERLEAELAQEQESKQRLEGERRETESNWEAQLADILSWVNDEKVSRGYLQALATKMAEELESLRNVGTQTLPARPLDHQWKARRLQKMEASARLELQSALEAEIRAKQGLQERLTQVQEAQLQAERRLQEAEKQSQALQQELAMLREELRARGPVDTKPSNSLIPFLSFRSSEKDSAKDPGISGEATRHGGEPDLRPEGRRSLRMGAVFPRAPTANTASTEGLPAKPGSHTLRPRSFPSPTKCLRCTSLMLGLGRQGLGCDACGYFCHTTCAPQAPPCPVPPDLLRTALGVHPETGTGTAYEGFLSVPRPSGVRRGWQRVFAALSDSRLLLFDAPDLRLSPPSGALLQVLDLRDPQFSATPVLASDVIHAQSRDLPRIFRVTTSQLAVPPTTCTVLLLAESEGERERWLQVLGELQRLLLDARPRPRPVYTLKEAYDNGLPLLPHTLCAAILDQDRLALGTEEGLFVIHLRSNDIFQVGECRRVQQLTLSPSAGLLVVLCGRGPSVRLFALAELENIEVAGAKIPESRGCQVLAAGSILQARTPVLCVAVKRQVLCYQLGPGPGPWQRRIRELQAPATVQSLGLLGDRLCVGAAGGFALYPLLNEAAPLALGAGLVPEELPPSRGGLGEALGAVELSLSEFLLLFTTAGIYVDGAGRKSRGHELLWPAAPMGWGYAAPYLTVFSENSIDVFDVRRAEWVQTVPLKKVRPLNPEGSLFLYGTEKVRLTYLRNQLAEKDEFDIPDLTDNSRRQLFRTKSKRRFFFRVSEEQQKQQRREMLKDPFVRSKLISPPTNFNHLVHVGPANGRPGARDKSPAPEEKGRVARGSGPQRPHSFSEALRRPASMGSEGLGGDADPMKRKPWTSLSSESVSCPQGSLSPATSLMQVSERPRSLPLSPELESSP

Compound	Kd [1]	Kd [2]	Kd [3]	Kd [4]	Kd [5]	Kd [6]
CC(=O)c1cnc2ccc(-c3cc(Cl)c(O)c(Cl)c3)nc2c1N[C@H]1CC[C@H](CN(C)C)CC1	0.011 µM (active)	> 30 µM (inactive)	0.063 µM	0.149 µM (active)	0.091 µM (active)	0.01 µM
CCNC(=O)C#Cc1ccc2c(c1)NC(=O)/C2=C(\Nc1ccc(CN(C)C)cc1)c1ccccc1	> 30 µM (inactive)	> 30 µM (inactive)		> 30 µM (inactive)	> 30 µM (inactive)	> 30 µM (inactive)
C=CC(=O)N1CCC[C@H](n2c(=O)n(-c3ccc(Oc4ccccc4)cc3)c3c(N)ncnc32)C1	> 30 µM (inactive)	> 30 µM (inactive)	> 30 µM (inactive)	> 30 µM (inactive)	> 30 µM (inactive)	> 30 µM (inactive)
Cc1nc2cc(-c3nn(C(C)C)c4ncnc(N)c34)ccc2o1	> 30 µM (inactive)	> 30 µM (inactive)	> 30 µM (inactive)	2.47 µM (active)	> 30 µM (inactive)	1.73 µM (active)
COc1cc(Nc2ncc3c(n2)-c2ccc(Cl)cc2C(c2c(F)cccc2OC)=NC3)ccc1C(=O)O [ALISERTIB]	> 30 µM (inactive)		> 30 µM (inactive)	> 30 µM (inactive)	> 30 µM (inactive)	> 30 µM (inactive)
Cc1nc(NC(=O)N2CCC[C@H]2C(N)=O)sc1-c1ccnc(C(C)(C)C(F)(F)F)c1 [ALPELISIB]	> 30 µM (inactive)	> 30 µM (inactive)	> 30 µM (inactive)	> 30 µM (inactive)	> 30 µM (inactive)	> 30 µM (inactive)
C=CC(=O)Nc1cc2c(Nc3ccc(F)c(Cl)c3)ncnc2cc1C#CC(C)(C)N1CCN(C)CC1 [AV-412 FREE BASE]	> 30 µM (inactive)	> 30 µM (inactive)	> 30 µM (inactive)	> 30 µM (inactive)	> 30 µM (inactive)	> 30 µM (inactive)
Cn1cnc2c(F)c(Nc3ccc(Br)cc3F)c(C(=O)NOCCO)cc21 [BINIMETINIB]	> 30 µM (inactive)	> 30 µM (inactive)	> 30 µM (inactive)	> 30 µM (inactive)	> 30 µM (inactive)	> 30 µM (inactive)
CCn1c(C(=O)N(C2CC2)C2CC2)cc2c3c(ncn3C)c(Nc3cc(C)n(C)n3)nc21 [BMS-911543]	> 30 µM (inactive)	> 30 µM (inactive)	> 30 µM (inactive)	> 30 µM (inactive)	> 30 µM (inactive)	> 30 µM (inactive)
COc1cc2ncnc(Oc3cccc(NC(=O)Nc4cc(C(C)(C)C(F)(F)F)on4)c3)c2cc1OC [CEP-32496]	> 30 µM (inactive)	> 30 µM (inactive)	> 30 µM (inactive)	> 30 µM (inactive)	> 30 µM (inactive)	> 30 µM (inactive)
Cc1cc(Nc2ncc(Cl)c(Nc3ccccc3S(=O)(=O)C(C)C)n2)c(OC(C)C)cc1C1CCNCC1 [CERITINIB]	1.06 µM	> 30 µM (inactive)	> 30 µM (inactive)	> 30 µM (inactive)	> 30 µM (inactive)	> 30 µM (inactive)
COCC(=O)NC/C=C/c1ccc2ncnc(Nc3ccc(Oc4ccc(C)nc4)c(C)c3)c2c1 [CP-724714]	> 30 µM (inactive)	> 30 µM (inactive)	> 30 µM (inactive)	> 30 µM (inactive)	> 30 µM (inactive)	> 30 µM (inactive)
C#Cc1cccc(Nc2ncnc3cc(OC)c(OCCCCCCC(=O)NO)cc23)c1 [CUDC-101]	> 30 µM (inactive)	> 30 µM (inactive)	> 30 µM (inactive)	> 30 µM (inactive)	> 30 µM (inactive)	> 30 µM (inactive)
CCS(=O)(=O)N1CCN(c2ccc(Nc3ncc(C(N)=O)c(NC4CC4)n3)cc2)CC1 [Cerdulatinib Hydrochloride]	> 30 µM (inactive)	> 30 µM (inactive)	> 30 µM (inactive)	> 30 µM (inactive)	> 30 µM (inactive)	2.22 µM (active)
CC(C)(C)c1nc(-c2cccc(NS(=O)(=O)c3c(F)cccc3F)c2F)c(-c2ccnc(N)n2)s1 [DABRAFENIB]	> 30 µM (inactive)	> 30 µM (inactive)	> 30 µM (inactive)	2.38 µM (active)	0.705 µM	> 30 µM (inactive)
COc1ccc(S(=O)(=O)N(C(C)=O)c2ccccc2/C=C/c2cc[n+]([O-])cc2)cc1 [HMN-214]	> 30 µM (inactive)	> 30 µM (inactive)	> 30 µM (inactive)	> 30 µM (inactive)	> 30 µM (inactive)	> 30 µM (inactive)
Cc1[nH]c(/C=C2\C(=O)Nc3ccccc32)c(C)c1CCC(=O)O [ORANTINIB]	> 30 µM (inactive)		> 30 µM (inactive)	> 30 µM (inactive)	> 30 µM (inactive)	> 30 µM (inactive)
NC(=O)c1c(OCc2c(F)cc(Br)cc2F)nsc1NC(=O)NCCCCN1CCCC1 [OSI-632]	> 30 µM (inactive)		> 30 µM (inactive)	0.005 µM (active)	> 30 µM (inactive)	> 30 µM (inactive)
CCCCCCCCCCCCCCCCCCOP(=O)([O-])OC1CC[N+](C)(C)CC1 [PERIFOSINE]	> 30 µM (inactive)	> 30 µM (inactive)		> 30 µM (inactive)	> 30 µM (inactive)	> 30 µM (inactive)
CC(=O)NCC(=O)N1[C@@H]2CC[C@H]1c1ccc(Nc3ncc(C(F)(F)F)c(NC4CCC4)n3)cc12 [PF-03814735]	> 30 µM (inactive)		> 30 µM (inactive)	> 30 µM (inactive)	> 30 µM (inactive)	2.05 µM (active)
C[C@@H](N)c1ccc(C(=O)Nc2ccnc3[nH]ccc23)cc1 [Y-39983]	0.018 µM (active)	> 30 µM (inactive)		> 30 µM (inactive)	> 30 µM (inactive)	> 30 µM (inactive)
